# Measured values from patent US10995083B2, “Cocrystal of 2-(6-methyl-pyridine-2-yl)-3-yl-[6-amide-quinoline-4-yl]-5,6-dihydro-4H-pyrrole[1,2-b]pyrazole, preparation method therefor, and pharmaceutical composition” (Hangzhou SoliPharma Co., Ltd., priority 2017, dated 2021).
# Counter-ions that a name gives are not always drawn.
# What was measured:
# [1] = apparent water solubility test; assay type: physicochemical; details: for Solubility: apparent water solubility, 25° C.±2° C., clarity observed by naked eye, 5 mg sample, max 100 mL water; for apparent water solubility: as shown in Comparative Example 1
# Method: Accurately weighed 5 mg samples in a 200 mL flask which was in a water bath with temperature 25° C.±2° C., added water in a geometric fashion the flask, stirred (about 200 r/min), and observed by naked eyes to see if it was clear. Water was added every 3 mins, maximum water amount 100 mL.
# [2] = storage phase stability of crystalline form at 25° C./60% relative humidity; assay type: physicochemical; details: 6 months of storage at 25° C./60% relative humidity
Solubility [1] [µg/mL],apparent water solubility [1],crystalline form after storage (phase stability) [2],Compound
<50,less than 50 ug/mL,,"Cc1cccc(-c2nn3c(c2-c2ccnc4ccc(C(N)=O)cc24)CCC3)n1 [LY2157299 Monohydrate, 2-(6-methyl-pyridin-2-yl)-3-(6-amido-quinolin-4-yl)-5,6-dihydro-4H-pyrrolo[1,2-b]pyrazole, reference compound]"
330,about 330 ug/mL,remained its original crystalline form,"Cc1cccc(-c2nn3c(c2-c2ccnc4ccc(C(N)=O)cc24)CCC3)n1 [LY2157299 fumarate cocrystal form, 2-(6-methyl-pyridin-2-yl)-3-(6-amido-quinolin-4-yl)-5,6-dihydro-4H-pyrrolo[1,2-b]pyrazole]"
130,about 130 ug/mL,remained its original crystalline form,"Cc1cccc(-c2nn3c(c2-c2ccnc4ccc(C(N)=O)cc24)CCC3)n1 [LY2157299 succinate cocrystal form, 2-(6-methyl-pyridin-2-yl)-3-(6-amido-quinolin-4-yl)-5,6-dihydro-4H-pyrrolo[1,2-b]pyrazole]"
